Reference: patent US8198456B2, “Dihydropyridine derivatives as useful as protein kinase inhibitors” (Bayer Intellectual Property GmbH, priority 2006, dated 2012)

Target: T1, recombinant human c-MET kinase enzyme domain (Homo sapiens, UniProt P08581)
T1 construct: Recombinant c-Met kinase domain (amino acids 960-1390); His (N); made in house; host or cells: baculovirus expression system (insect cells; SF21 is named only for the alternative format)
Test: c-MET receptor tyrosine kinase Homogeneous Time Resolved Fluorescence assay (HTRF)
Assay type: biochemical
Conditions: Biological Example 1 and/or Biological Example 2
Description: Recombinant c-Met kinase domain (amino acids 960-1390) was produced in a baculovirus expression vector as an N-terminal His-tagged fusion protein and purified on a NiNTA column. The resulting purified enzyme was then used in the following c-Met Homogeneous Time Resolved Fluorescence assay (HTRF) to find compounds of the invention and to perform initial activity determinations. Specifically, this assay measures the ability of compounds of the invention to inhibit the phosphorylation of a randomly synthesized, biotinylated heterocopolymeric polypeptide composed of glutamic acid and tyrosine, with an average length of 100 aa. The assay analyzes the amount of phosphorylated polypeptide produced.
The enzymatic phosphorylation of the biotinylated heterocopolymeric polypeptide was performed in a black 384-well plate at ambient temperature in a reaction mixture containing 50 mM HEPES (pH 7.4), 5 mM MgCl2, 5 mM MnCl2, 0.01% Tween-20, and 2 mM DTT, […] recombinant human c-MET kinase enzyme domain, 37 nM biotinylated heterocopolymeric polypeptide composed of glutamic acid and tyrosine, 20 μM ATP, 1% DMSO in the absence or presence of a compound of the invention. The reaction was stopped after a 20-minute incubation by the addition of 80 mM EDTA.
The formation of phosphorylated heterocopolymeric, biotinylated polypeptide was quantified with the HTRF assay technology using an anti-phosphotyrosine antibody, PT66, conjugated to europium cryptate, mixed with a streptavidin-XL665 conjugate. Reduced or inhibited phosphorylation of the heterocopolymeric, biotinylated polypeptide prevents the anti-phosphotyrosine antibody from binding to the peptide, resulting in a loss of energy transfer to the streptavidin-XL665 conjugate.
Following the 384-well enzymatic phosphorylation reaction outlined above, the detection of phosphorylated heterocopolymeric, biotinylated polypeptide was performed by dilution of the stopped reaction mixture 2-fold with 50 mM HEPES (pH 7.0), 500 mM KF, 0.1% BSA, streptavidin-XL665 (20 nM), and anti-phosphotyrosine antibody PT66-crypate conjugate (6.4 ng/well) and incubation for four hours at ambient temperature. Plates were read in an Envision plate reader (PerkinElmer Life and Analytical Sciences, Inc., MA) simultaneously at 620 nm and 665 nm to obtain signal ratios of 665 nm/620 nm. Results of energy transfer were expressed as signal ratios of 665 nm/620 nm. Negative controls were samples without recombinant c-MET or c-MET treated with 100 mM EDTA.
For determination of IC50 values of particular compounds of the invention, eight serially diluted compound concentrations (at 1:3.16 dilution) were used in the assay. Controls without a compound of the invention or with a reference compound were run in parallel in the same assay plate.

T1 sequence (P08581 960-1390): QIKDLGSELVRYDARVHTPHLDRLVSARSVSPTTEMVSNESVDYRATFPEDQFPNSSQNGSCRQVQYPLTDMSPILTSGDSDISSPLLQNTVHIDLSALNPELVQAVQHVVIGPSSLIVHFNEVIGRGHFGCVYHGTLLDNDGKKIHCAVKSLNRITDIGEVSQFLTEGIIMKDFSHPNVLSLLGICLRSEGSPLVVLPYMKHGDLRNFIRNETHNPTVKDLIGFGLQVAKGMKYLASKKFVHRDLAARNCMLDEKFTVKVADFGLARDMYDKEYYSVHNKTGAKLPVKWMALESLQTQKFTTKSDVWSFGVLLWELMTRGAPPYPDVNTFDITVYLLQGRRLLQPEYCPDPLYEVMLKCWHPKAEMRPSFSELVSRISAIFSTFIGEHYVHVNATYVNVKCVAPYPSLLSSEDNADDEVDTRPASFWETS

SMILES | IC50
CC1=C(C#N)C(c2cccc(NC(=O)c3ncc[nH]3)c2)C(C#N)=C(C)N1 [compound 65, N-[3-(3,5-dicyano-1,4-dihydro-2,6-dimethyl-4-pyridinyl)phenyl]-1H-imidazole-2-carboxamide] | 100 to 500 nM
CC1=C(C#N)C(c2cccc(NC(=O)c3cnc[nH]3)c2)C(C#N)=C(C)N1 [compound 66, N-[3-(3,5-dicyano-1,4-dihydro-2,6-dimethyl-4-pyridinyl)phenyl]-1H-imidazole-5-carboxamide] | 100 to 500 nM
CC1=C(C#N)C(c2cccc(C(=O)Nc3cccc(N)n3)c2)C(C#N)=C(C)N1 [compound 68, N-(6-amino-2-pyridinyl)-3-(3,5-dicyano-1,4-dihydro-2,6-dimethyl-4-pyridinyl)-benzamide] | 100 to 500 nM
CC1=C(C#N)C(c2cccc(C(=O)Nc3ccc(CO)cn3)c2)C(C#N)=C(C)N1 [compound 72, 3-(3,5-dicyano-1,4-dihydro-2,6-dimethyl-4-pyridinyl)-N-[5-(hydroxymethyl)-2-pyridinyl]-benzamide] | 100 to 500 nM
CC1=C(C#N)C(c2cccc(C(=O)Nc3ccc(CN(C)C)cn3)c2)C(C#N)=C(C)N1 [compound 76, 3-(3,5-dicyano-1,4-dihydro-2,6-dimethyl-4-pyridinyl)-N-[5-[(dimethylamino)methyl]-2-pyridinyl]-benzamide] | 100 to 500 nM
CC1=C(C#N)C(c2ccc3[nH]ncc3c2)C(C#N)=C(C)N1 [compound 80, 1,4-dihydro-4-(1H-indazol-5-yl)-2,6-dimethyl-3,5-pyridinedicarbonitrile] | < 100 nM
CC1=C(C#N)C(c2ccc3[nH]nc(C)c3c2)C(C#N)=C(C)N1 [compound 81, 1,4-dihydro-2,6-dimethyl-4-(3-methyl-1H-indazol-5-yl)-3,5-pyridinedicarbonitrile] | < 100 nM
CC1=C(C#N)C(c2ccc3[nH]nc(N)c3c2)C(C#N)=C(C)N1 [compound 82, 4-(3-amino-1H-indazol-5-yl)-1,4-dihydro-2,6-dimethyl-3,5-pyridinedicarbonitrile] | < 100 nM
CC1=C(C#N)C(c2ccc3[nH]nc(CN4CCOCC4)c3c2)C(C#N)=C(C)N1 [compound 83, 1,4-dihydro-2,6-dimethyl-4-[3-(4-morpholinylmethyl)-1H-indazol-5-yl]-3,5-pyridinedicarbonitrile] | 500 to 2500 nM
COc1cccc(-c2n[nH]c3ccc(C4C(C#N)=C(C)NC(C)=C4C#N)cc23)c1 [compound 84, 1,4-dihydro-4-[3-(3-methoxyphenyl)-1H-indazol-5-yl]-2,6-dimethyl-3,5-pyridinedicarbonitrile] | 100 to 500 nM
COC(=O)c1n[nH]c2ccc(C3C(C#N)=C(C)NC(C)=C3C#N)cc12 [compound 85, 5-(3,5-dicyano-1,4-dihydro-2,6-dimethyl-4-pyridinyl)-1H-indazole-3-carboxylic acid methyl ester] | 500 to 2500 nM
CC1=C(C#N)C(c2ccc3[nH]nc(C(=O)O)c3c2)C(C#N)=C(C)N1 [compound 86, 5-(3,5-dicyano-1,4-dihydro-2,6-dimethyl-4-pyridinyl)-1H-indazole-3-carboxylic acid] | < 100 nM
CC1=C(C#N)C(c2ccc3[nH]nc(-c4cccnc4)c3c2)C(C#N)=C(C)N1 [compound 87, 1,4-dihydro-2,6-dimethyl-4-[3-(3-pyridinyl)-1H-indazol-5-yl]-3,5-pyridinedicarbonitrile] | < 100 nM
CC1=C(C#N)C(c2ccc3[nH]nc(-c4ccccn4)c3c2)C(C#N)=C(C)N1 [compound 88, 1,4-dihydro-2,6-dimethyl-4-[3-(2-pyridinyl)-1H-indazol-5-yl]-3,5-pyridinedicarbonitrile] | < 100 nM
CC(=O)Nc1n[nH]c2ccc(C3C(C#N)=C(C)NC(C)=C3C#N)cc12 [compound 89, N-[5-(3,5-dicyano-1,4-dihydro-2,6-dimethyl-4-pyridinyl)-1H-indazol-3-yl]-acetamide] | < 100 nM
CC1=C(C#N)C(c2ccc3[nH]nc(CNc4cccnc4)c3c2)C(C#N)=C(C)N1 [compound 91, 1,4-dihydro-2,6-dimethyl-4-[3-[(3-pyridinylamino)methyl]-1H-indazol-5-yl]-3,5-pyridinedicarbonitrile] | < 100 nM
CC1=C(C#N)C(c2ccc3c(c2)c(N)nn3C(=O)OC(C)(C)C)C(C#N)=C(C)N1 [compound 92, 3-amino-5-(3,5-dicyano-1,4-dihydro-2,6-dimethyl-4-pyridinyl)-1H-indazole-1-carboxylic acid tert-butyl ester] | 100 to 500 nM
CC1=C(C#N)C(c2ccc3[nH]nc(I)c3c2)C(C#N)=C(C)N1 [compound 93, 1,4-dihydro-4-(3-iodo-1H-indazol-5-yl)-2,6-dimethyl-3,5-pyridinedicarbonitrile] | < 100 nM

Next, values leading:

IC50 | SMILES
< 100 nM | CC1=C(C#N)C(c2ccc3c(c2)c(N)nn3C(=O)c2ccccc2)C(C#N)=C(C)N1 [compound 95, 4-(3-amino-1-benzoyl-1H-indazol-5-yl)-1,4-dihydro-2,6-dimethyl-3,5-pyridinedicarbonitrile]
< 100 nM | CC1=C(C#N)C(c2ccc3[nH]nc(NCc4ccccc4)c3c2)C(C#N)=C(C)N1 [compound 105, 1,4-dihydro-2,6-dimethyl-4-[3-[(phenylmethyl)amino]-1H-indazol-5-yl]-3,5-pyridinedicarbonitrile]
100 to 500 nM | COC(c1cccnc1)n1nc(N)c2cc(C3C(C#N)=C(C)NC(C)=C3C#N)ccc21 (stereo not drawn) [compound 110, 4-[3-amino-1-(methoxy-3-pyridinylmethyl)-1H-indazol-5-yl]-1,4-dihydro-2,6-dimethyl-3,5-pyridinedicarbonitrile]
< 100 nM | CC1=C(C#N)C(c2ccc3[nH]nc(-c4ccc(N5CCNCC5)cc4)c3c2)C(C#N)=C(C)N1 [compound 111, 1,4-dihydro-2,6-dimethyl-4-[3-[4-(1-piperazinyl)phenyl]-1H-indazol-5-yl]-3,5-pyridinedicarbonitrile]
< 100 nM | CC1=C(C#N)C(c2ccc3[nH]nc(NCCO)c3c2)C(C#N)=C(C)N1 [compound 118, 1,4-dihydro-4-[3-[(2-hydroxyethyl)amino]-1H-indazol-5-yl]-2,6-dimethyl-3,5-pyridinedicarbonitrile]
< 100 nM | CC1=C(C#N)C(c2ccc3c(c2)c(NCCO)nn3C(=O)OC(C)(C)C)C(C#N)=C(C)N1 [compound 119, 5-(3,5-dicyano-1,4-dihydro-2,6-dimethyl-4-pyridinyl)-3-[(2-hydroxyethyl)-amino]-1H-indazole-1-carboxylic acid, 1,1-dimethylethyl ester]
< 100 nM | CC1=C(C#N)C(c2ccc3[nH]nc(NCc4cccnc4)c3c2)C(C#N)=C(C)N1 [compound 120, 1,4-dihydro-2,6-dimethyl-4-[3-[(3-pyridinylmethyl)amino]-1H-indazol-5-yl]-3,5-pyridinedicarbonitrile]
500 to 2500 nM | COC(=O)Nc1ccc(-c2n[nH]c3ccc(C4C(C#N)=C(C)NC(C)=C4C#N)cc23)cc1 [compound 123, [4-[5-(3,5-dicyano-1,4-dihydro-2,6-dimethyl-4-pyridinyl)-1H-indazol-3-yl]-phenyl]-carbamic acid methyl ester]
< 100 nM | CC1=C(C#N)C(c2ccc3[nH]nc(C(=O)NCCN4CCCC4)c3c2)C(C#N)=C(C)N1 [compound 124, 5-(3,5-dicyano-1,4-dihydro-2,6-dimethyl-4-pyridinyl)-N-[2-(1-pyrrolidinyl)ethyl]-1H-indazole-3-carboxamide]
